Patent US5603951A, “Cyclosporin-containing soft capsule compositions” (Hanmi Pharm. Ind. Co., Ltd., priority 1994, dated 1997)

Test: Change in cosurfactant content of soft capsules over storage at room temperature (membrane permeation, gas chromatography)
Format: physicochemical
Protocol: The content of the cosurfactant in each soft capsule preparation was analyzed by gas chromatography.
Conditions of gas chromatography for each cosurfactant
Column: Ultra 2 (Crosslinked 2% phenylmethyl silicone gun phase, 25 m
× 0.32 mm, thickness 0.52 μm)
Column temperature: 230° C. (Isothermal)
Detector: FID (Temperature: 270° C.)
Injection temperature: 275° C.
Carrier gas: He (Partition ratio 80:1)
Internal standard: Octyl alcohol
Column: HP20M (Carbowax 20M) (25 m × 0.32 mm, film thickness 0.3
Column temperature: 30° C. (Isothermal)
Detector: FID (Temperature: 200° C.)
Injection temperature: 150° C.
Internal standard: Diethyl ether

Change of cosurfactant content in soft capsule after 10 days (in words)	Cosurfactant content reduced by, of the initial content, after 10 days (soft capsule)	SMILES
does not change in its content		CO[C@H]1CO[C@H]2[C@@H]1OC[C@H]2OC [dimethylisosorbide]
	27.8%	CCO [ethanol]
